Patent US6521594B1, “Method and composition for treating thrombosis” (La Jolla Cancer Research Foundation, priority 1990, dated 2003)
Read-outs that look alike come from different tables or passages of the source. Non-standard residues stand in square brackets, D forms with d. No end group written: not given here. *: point of attachment. Pmc = Cc1c(C)c(S(=O)(=O)*)c(C)c2c1OC(C)(C)CC2; Pen = CC(C)(S)[C@H](N)C(=O)O

Legend:
platelets [1] = target: T1, platelets (Homo sapiens, UniProt P05106+P08514); format: cell-based; settings: ADP 10 μm; citrated PRP; read-out: ADP-Stimulated Aggregation (IC50)
T1 sequence (P08514 32-1039): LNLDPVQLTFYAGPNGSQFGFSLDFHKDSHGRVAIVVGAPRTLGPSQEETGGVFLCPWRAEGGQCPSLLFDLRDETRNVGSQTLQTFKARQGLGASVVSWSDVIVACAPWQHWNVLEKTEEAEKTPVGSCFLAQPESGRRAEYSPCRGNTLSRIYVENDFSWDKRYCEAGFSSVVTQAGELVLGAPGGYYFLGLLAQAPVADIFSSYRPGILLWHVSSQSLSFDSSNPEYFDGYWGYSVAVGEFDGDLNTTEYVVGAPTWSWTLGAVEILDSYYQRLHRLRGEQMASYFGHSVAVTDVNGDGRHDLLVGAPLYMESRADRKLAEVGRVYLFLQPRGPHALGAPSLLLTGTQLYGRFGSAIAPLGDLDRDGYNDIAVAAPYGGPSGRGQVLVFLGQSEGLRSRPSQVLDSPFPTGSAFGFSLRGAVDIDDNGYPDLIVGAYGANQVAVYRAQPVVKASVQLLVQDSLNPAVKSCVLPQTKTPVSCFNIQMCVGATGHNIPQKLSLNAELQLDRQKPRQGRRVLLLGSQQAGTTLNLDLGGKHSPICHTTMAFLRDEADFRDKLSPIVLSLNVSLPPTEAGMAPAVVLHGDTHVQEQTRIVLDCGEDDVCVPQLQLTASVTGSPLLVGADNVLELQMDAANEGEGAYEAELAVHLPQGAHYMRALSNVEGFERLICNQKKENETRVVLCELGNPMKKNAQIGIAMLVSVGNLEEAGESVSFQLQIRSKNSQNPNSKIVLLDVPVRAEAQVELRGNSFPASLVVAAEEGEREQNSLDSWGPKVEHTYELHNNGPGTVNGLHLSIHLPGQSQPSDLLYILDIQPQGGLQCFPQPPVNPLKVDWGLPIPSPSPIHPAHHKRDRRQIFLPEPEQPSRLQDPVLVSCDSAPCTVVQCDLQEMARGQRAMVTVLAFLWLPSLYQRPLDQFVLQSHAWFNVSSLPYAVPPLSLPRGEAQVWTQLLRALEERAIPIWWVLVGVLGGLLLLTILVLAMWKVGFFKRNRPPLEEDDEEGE
T1 sequence (P05106 27-788): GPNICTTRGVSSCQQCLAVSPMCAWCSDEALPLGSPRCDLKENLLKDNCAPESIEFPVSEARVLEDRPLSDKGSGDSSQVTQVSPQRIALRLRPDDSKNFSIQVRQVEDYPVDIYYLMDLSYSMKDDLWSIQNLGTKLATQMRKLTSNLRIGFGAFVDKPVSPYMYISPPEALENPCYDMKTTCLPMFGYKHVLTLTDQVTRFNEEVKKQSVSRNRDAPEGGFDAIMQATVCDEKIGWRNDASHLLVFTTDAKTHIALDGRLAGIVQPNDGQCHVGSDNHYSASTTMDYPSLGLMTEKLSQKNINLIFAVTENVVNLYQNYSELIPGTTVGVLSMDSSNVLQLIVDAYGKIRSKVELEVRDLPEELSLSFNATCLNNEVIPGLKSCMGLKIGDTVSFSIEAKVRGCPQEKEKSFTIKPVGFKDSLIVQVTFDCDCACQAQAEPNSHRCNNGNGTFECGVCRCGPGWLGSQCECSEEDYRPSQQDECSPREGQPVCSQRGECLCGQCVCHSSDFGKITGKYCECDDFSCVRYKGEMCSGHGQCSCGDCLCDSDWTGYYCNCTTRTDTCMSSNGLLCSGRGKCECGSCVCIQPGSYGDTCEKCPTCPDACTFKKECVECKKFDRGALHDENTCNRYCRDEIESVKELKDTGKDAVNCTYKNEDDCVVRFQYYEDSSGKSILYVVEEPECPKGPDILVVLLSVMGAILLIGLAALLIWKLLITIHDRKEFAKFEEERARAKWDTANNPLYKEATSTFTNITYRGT
Experimental: Briefly, the change in light transmission was measured through a stirred suspension of platelets in an aggregometer (Model 400 VS, Chrono-Log, Havertown, Pa., USA). […] In studies using thrombin, the PRP was gel-filtered on Sepharose 2B in divalent ion-free Tyrode's solution containing 2% BSA. For all studies, the reference standard was platelet-poor plasma, which was obtained by centrifuging PRP at 1000×g for 5 min.
(§1) All aggregation studies were performed at 37° C. with a constantly stirred suspension of 3×10^8 platelets/ml. (Platelet count was determined with the aid of a hemacytometer.) Peptides and stimulants were added to these suspensions in 1% dilutions. The PRP and gel-filtered platelets were used within three hours from the time of blood collection.
(§2) Peptide anti-aggregation potencies were determined from dose-responsive curves for the inhibition of the maximum aggregation responses stimulated by physiologic doses of ADP (10 μm) and thrombin (2 U/ml).

platelets [2] = target: T1, platelets; test: Thrombin-stimulated platelet aggregation (gel-filtered platelets); format: cell-based; settings: thrombin 2 U/ml
Experimental: as §1, §2

platelets [3] = target: T1, platelets; test: Platelet aggregation assay (Examples XI.G and XII); format: cell-based; settings: for fold increase in potency over analogue 1: comparator analogue 1; for fold increase in platelet aggregation potency on substitution of Leu in analogue 5: comparator analogue 5; for reactivity in platelet aggregation relative to 8×: comparator 8×
Experimental: Platelet aggregation was assessed using the method of Born, Nature 194:927-929 (1962), incorporated herein by reference. Briefly, the change in light transmission was measured through a stirred suspension of platelets in an aggregometer (Model 400 VS, Chrono-Log, Havertown, Pa., USA). Studies employing ADP were performed with platelet-rich plasma (PRP), which was obtained by low-speed centrifugation (200×g for 10 min.) of whole blood freshly drawn into trisodium citrate (at a final concentration of 11 mM). In studies using thrombin, the PRP was gel-filtered on Sepharose 2B in divalent ion-free Tyrode's solution containing 2% BSA. For all studies, the reference standard was platelet-poor plasma, which was obtained by centrifuging PRP at 1000×g for 5 min.
All aggregation studies were performed at 37° C. with a constantly stirred suspension of 3×10^8 platelets/mL. (Platelet count was determined with the aid of a hemacytometer.) Peptides and stimulants were added to these suspensions in 1% dilutions. The PRP and gel-filtered platelets were used within three hours from the time of blood collection.
The peptides described in this Example were synthesized according to the methods of Examples I and XI. Selectivity and potency were measured according to the methods of Examples II through XI. The peptide identification numbers used in this Example are consistent and relevant to this Example only. Some of the peptides are identified by other nomenclature elsewhere in this document.

αvβ5 = αvβ5 ELISA IC50 (μM)
Description: Table printed on a drawing sheet, FIG. 23
Title: Modification of Ac-CNPRGD(Y-OMe)RC-NH2
Head of the field: αvβ5 ELISA IC50 (μM)
First copying reader's note: Underlining in the printed sequences marks the cyclised part (C to C); the footnote for the raised a on 'Peptide' is not printed on the sheet.
Where the first naming reader finds the target: head: αvβ5 ELISA IC50 (μM)

Work on G(Pen)GRGDRPCA yielded an IC50 (platelets [1]) of 22.3 µM.
Substance G(Pen)GHRGDTRCA has an IC50 (platelets [2]) of 17 µM and an IC50 (platelets [1]) of 11.3 µM.
Substance (t-but-am-Pmp)GHRGDLR(Pen)A has an IC50 (platelets [1]) of 89 µM.
With (Pmp)GHRGDLRCA the “fold increase in potency over analogue 1” value (platelets [3]) was 2 fold.
With GNPRGD(O-Me-Y)RD-NH2 [20Q] the “potency relative to 17J” value (platelets [3]; comparator 17J) was “about three times” and the “potency relative to 18J” value (platelets [3]; comparator 18J) was “about 20 times”.
For Ac-CNPRGD(Y-OMe)OC-NH2 [11P], the IC50 (αvβ5) was 7.7 µM.
R(Pmc)GHRGDYRCR gave an IC50 (platelets [1]) of 1 µM.
R(Pen)GRGDTPCR gave an IC50 (platelets [2]) of 2 µM.
Ac-CNPRGD(Y-OMe)LC-NH2 [compound 47] showed an IC50 (αvβ5) of 7.14 µM.
In the case of AcCIPRGDY-OMeRCNH2 [10R], the “fold increase in platelet aggregation potency versus analogue 26” value (platelets [3]; comparator analogue 26) is reported as 3-4 fold.
In the case of G(Pen)GRGDTPCA, the IC50 (platelets [1]) is reported as 22.3 µM.
With Ac-CNPRGD(Y-OMe)AC-NH2 [11K] the IC50 (αvβ5) was 8.85 µM.
Substance G(Pen)LRGDTPCA has an IC50 (platelets [1]) of 86 µM.
Substance Ac-CNPRGD(Y-OMe)EC-NH2 [11J] has an IC50 (αvβ5) of 9.47 µM.
With Ac-CNPRGD(Y-OMe)(dR)C-NH2 [11L] the “platelet aggregation potency compared with analogue 32” value (platelets [3]; comparator analogue 32) was “decrease in potency”.
Work on “Ac-CNPRGD(Y-OMe)KC-NH2 [11R] [listing 1 of 2 here]” yielded an IC50 (αvβ5) of 5.82 µM.
“Ac-CNPRGD(O-N-Butyl-Y)RC-NH2 [analogue 34]” was tested, and the “fold increase in potency over analogue 1” value (platelets [3]) was “about 150 fold”.
Substance G(Pen)LRGDSRCA has an IC50 (platelets [2]) of 49 µM and an IC50 (platelets [1]) of 41 µM.
For R(Tmc)GHRGDLRCR [analogue 7], the “fold more potent than analogue 3 in the aggregation assay” value (platelets [3]; comparator analogue 3) was 2 fold.
For R(Pmc)GHRGDFRCR, the IC50 (platelets [1]) was 0.62 µM and the “fold increase in platelet aggregation potency on substitution of Leu in analogue 5” value (platelets [3]) was about 5 fold.
Substance Ac-CNPRGD(Y-OMe)(Cit)C-NH2 [11S] has an IC50 (αvβ5) of 3.46 µM.
“Ac-CNPRGD(Y-OMe)KC-NH2 [11R] [listing 2 of 2 here]” was tested, and the “retained inhibitory activity versus analogue 32” value (platelets [3]; comparator analogue 32) was 20%.
In the case of R(Pen)GRGDTPCA, the IC50 (platelets [1]) is reported as 7 µM.
With R(Pmc)GHRGDVRCR the IC50 (platelets [1]) was 0.69 µM and the “fold increase in platelet aggregation potency on substitution of Leu in analogue 5” value (platelets [3]) was 4 fold.
For R2(Pen)GRGDTPCA, the IC50 (platelets [2]) was 2.7 µM and the IC50 (platelets [1]) was 8.2 µM.
In the case of (Mpr)RGD(O-Me-Y)RC-NH2 [16A], the “reactivity in platelet aggregation relative to 8×” value (platelets [3]) is reported as “about two-fold”.
With “G[Pen]GRGDSFCA (cysteine pairing not given here)” the IC50 (platelets [1]) was 115 µM.
For RGD(O-Me-Y)RE-NH2 [21I], the “reactivity in platelet aggregation relative to 8×” value (platelets [3]) was “about three-fold”.
With G(Pen)FRGDSFCA the IC50 (platelets [1]) was under 200 µM.
Work on G(Pen)LRGDSPCA yielded an IC50 (platelets [2]) of 308 µM and an IC50 (platelets [1]) of 415 µM.
Work on L(Pen)GHRGDLRCA yielded an IC50 (platelets [1]) of 10.5 µM.
